“Also recorded” adds a separate entry of the source. Read-outs that look alike come from different tables or passages of the source.
Legend:
[1] = system: liver; conditions: cited from earlier work
[2] = system: liver; conditions: cited from earlier work; for liver injury incidents/million prescriptions: human; for Human/Animal Toxicology (findings in words, wrapped cells): in vivo
[3] = system: hepatocytes in SALA model; test: Oxidative stress response in biosensor transduced hepatocytes in SALA model; assay type: cell-based, human; conditions: 0 to 15 hr treatment period
From the text: Image processing at each time point provides kinetic physiological responses is provided in Panel D.

[4] = in vivo; cited from earlier work
[5] = system: SALA model cells; conditions: human
From the text: (§1) Efflux media was collected for measurements of organ model health using assays for lactate dehydrogenase (LDH) release, and albumin, and urea synthesis. LDH is released from cells under conditions of cytotoxic damage. Albumin and urea are secreted from functional hepatocytes. The media efflux was also used to monitor the presence of drug and metabolic products for PK. When compounds are included in the microfluidic media, hepatocytes are exposed to the compound and often biotransform them to a chemically distinct product. Mass spectrometry is a specific and sensitive method to observe these changes. Typically, ca. 15 microliters of media is collected for each biochemical and mass spec measurement (flow rate=5 microliters per hour.)
Troglitazone (28 or 180 μM), or caffeine (600 μM, negative control) was introduced into the microfluidic device for 0-28 days.

[6] = system: hepatocyte sentinel cells; test: Statistical validation of biosensors in hepatocyte sentinel cells in microplates; assay type: cell-based, human; conditions: 50 μM
From the text: A panel of biosensors was delivered through lentiviral transduction in multiple fluorescent protein colors initially validated in microplates for an acute response. An SSMD level of ≥2 is considered a statistically valid response.

[7] = system: hepatocytes in SALA model (bile canalicular efflux, BSEP); test: Bile efflux (CMFDA fluorescence) in SALA model; assay type: cell-based, human; conditions: 50 μM
[8] = system: LX-2 stellate cells; conditions: 30 nM
From the text: Day 21 Immunofluorescence images of a SALA liver vehicle treated 21 days, fixed, and reacted against α-Human Collagen type ½ is provided in panel C. […] Nuclei are false colored blue in all images.

[9] = system: hepatocytes in SALA model (Cyp3A4 signature metabolite); test: LC-MS of efflux media: metabolic clearance and metabolite production in SALA model; conditions: 5 μM testosterone in influx media; efflux collected over 24 hr at 5 μl/hr; day 10
From the text: as §1

[10] = system: hepatocytes in SALA model; test: Hepatocyte area measured in real-time with cytochrome C biosensor in SALA model; assay type: cell-based, human
From the text: (§2) Correlation of propidium iodide (PI) uptake with cell area of hepatocytes is illustrated in FIG. 11. The cytochrome C biosensor is used to measure hepatocyte area in order to perform real-time measurements of apoptosis.

[11] = system: hepatocytes in SALA model; test: Propidium iodide uptake of hepatocytes in SALA model; assay type: cell-based, human; conditions: 200 μM trovafloxacin co-treated with 1 ug/ml LPS, compared to vehicle
From the text: as §2

[12] = system: U937 cells; test: TNF-alpha release from LPS activated U937 cells; assay type: cell-based, human

CCc1nn(CCCN2CCN(c3cccc(Cl)c3)CC2)c(=O)n1CCOc1ccccc1 [Nefazodone]
MOT (wrapped cells) [1]: Mitochondrial and ROS and Bile Efflux | liver injury incidents/million prescriptions [2]: 105 incidents/million incidents/million prescriptions | Human/Animal Toxicology (findings in words, wrapped cells) [2]: Acute hepatitis; also recorded: Centrilobular (zone 3); also recorded: Cholestasis, apoptosis | ROS generation [3]: increase of ROS generation | mitochondrial function [3]: decrease in mitochondrial function | oxidative stress in hepatocytes [3]: induces oxidative stress | Cmax [4]: 900 nM

CS(=O)(=O)Nc1ccc([N+](=O)[O-])cc1Oc1ccccc1 [Nimesulide]
LDH leakage, time of peak ([5]; 210 μM): ~5 days

O=c1n(CCCN2CCN(c3cccc(Cl)c3)CC2)nc2ccccn12 [Trazodone]
MOT (wrapped cells) [1]: No known | liver injury incidents/million prescriptions [2]: 0.21 incidents/million prescriptions | Human/Animal Toxicology (findings in words, wrapped cells) [2]: extremely rare liver; also recorded: Mild ↑transaminases, | Cmax [4]: 5000 nM

Cc1c(C)c2c(c(C)c1O)CCC(C)(COc1ccc(CC3SC(=O)NC3=O)cc1)O2 (stereo not drawn) [Troglitazone]
MOT (wrapped cells) [1]: Mitochondrial; also recorded: BSEP inhibitor | SSMD, Bile canalicular efflux (CMFDA) [6]: 11 | liver injury incidents/million prescriptions [2]: Up to 1000 incidents/million prescriptions | Human/Animal Toxicology (findings in words, wrapped cells) [2]: Moderate to severe; also recorded: Variable necrosis,; also recorded: cholestasis,; also recorded: inflammatory | release of LDH, time of peak loss ([5]; 28 μM): ~13 days | release of LDH, time of peak loss ([5]; 180 μM): ~4 days | CMFDA dye uptake and efflux in hepatocytes ([7]; 10 day treatment, monitored 60 minutes, compared to vehicle): slower uptake and inhibition of efflux | hepatocyte retention of dye ([7]; at 60 minutes): increased hepatocyte retention of dye | Cmax [4]: 1800 nM

CN(Cc1cnc2nc(N)nc(N)c2n1)c1ccc(C(=O)N[C@@H](CCC(=O)O)C(=O)O)cc1 [methotrexate]
expression of collagen type 1A2 protein in LX-2 stellate cells ([8]; day 21, relative to vehicle control): increased | LX-2 stellate cell division, transmigration and accumulation in hepatocyte layer ([8]; over 21 days, compared with vehicle (1.0% DMSO)): accelerated rate

C[C@]12CC[C@H]3[C@@H](CCC4=CC(=O)CC[C@@]43C)[C@@H]1CC[C@@H]2O [testosterone]
testosterone exits unchanged through the device (ratio of mass area under the curves) [9]: 27%

N[C@@H]1[C@H]2CN(c3nc4c(cc3F)c(=O)c(C(=O)O)cn4-c3ccc(F)cc3F)C[C@@H]12 [trovafloxacin]
hepatocyte area ([10]; 200 μM trovafloxacin alone, day 7): decrease in hepatocyte area | cell area of hepatocytes ([10]; 200 μM trovafloxacin co-treated with 1 ug/ml LPS, compared to vehicle (1% DMSO)): reduction in cell area | hepatocyte area ([10]; 200 μM trovafloxacin plus 1 ug/ml LPS, day 5): decrease in hepatocyte area | propidium iodide (PI) uptake [11]: increased PI uptake | propidium iodide (PI) uptake ([11]; listed as trovofloxacin): increase in propidium iodide uptake

Lipopolysaccharide [LPS]
EC50 of TNF-alpha release [12]: 0.7 µg/mL

— patent publication US20210301261A1, “HUMAN LIVER MICROPHYSIOLOGY PLATFORM AND SELF ASSEMBLY LIVER ACINUS MODEL AND METHODS OF THEIR USE” (priority 2014, published 2021)
